Laboratory results from PubChem BioAssay AID2060489 (Molecular Pharmacology Branch, DTP, NCI, 2025).

System: 922993-354-T-J3-PDC complex spheroids, viability
Test: Anticancer human tumor 922993-354-T-J3-PDC patient-derived endometrial carcinoma cell line growth inhibition [GQUAD]
Conditions: for IC50: curve of first compound; for viability, T/C: stronger effect = lower value
Summary of the method: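 Multi-cell-type spheroids of tumor cells with HUVEC and mesenchymal stem cells, treated with drug combinations. Concentrations descend in half-log steps from near clinical Cmax, or from 10 microM where Cmax is unknown; viability read-out.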

[1] = second compound 0.0316 µM, first compound 0.0316 µM
[2] = second compound 0.0316 µM, first compound 0.1 µM
[3] = second compound 0.0316 µM, first compound 0.316 µM
[4] = second compound 0.0316 µM, first compound 1 µM
[5] = second compound 0.0316 µM, first compound 3.16 µM
[6] = second compound 0.0316 µM, first compound 10 µM
[7] = second compound 0.1 µM, first compound 0.0316 µM
[8] = second compound 0.1 µM, first compound 0.1 µM
[9] = second compound 0.1 µM, first compound 0.316 µM
[10] = second compound 0.1 µM, first compound 1 µM
[11] = second compound 0.1 µM, first compound 3.16 µM
[12] = second compound 0.1 µM, first compound 10 µM
[13] = second compound 0.316 µM, first compound 0.0316 µM
[14] = second compound 0.316 µM, first compound 0.1 µM
[15] = second compound 0.316 µM, first compound 0.316 µM
[16] = second compound 0.316 µM, first compound 1 µM
[17] = second compound 0.316 µM, first compound 3.16 µM
[18] = second compound 0.316 µM, first compound 10 µM
[19] = second compound 1 µM, first compound 0.0316 µM
[20] = second compound 1 µM, first compound 0.1 µM
[21] = second compound 1 µM, first compound 0.316 µM
[22] = second compound 1 µM, first compound 1 µM
[23] = second compound 1 µM, first compound 3.16 µM
[24] = second compound 1 µM, first compound 10 µM
[25] = second compound 3.16 µM, first compound 0.0316 µM
[26] = second compound 3.16 µM, first compound 0.1 µM
[27] = second compound 3.16 µM, first compound 0.316 µM
[28] = second compound 3.16 µM, first compound 1 µM
[29] = second compound 3.16 µM, first compound 3.16 µM
[30] = second compound 3.16 µM, first compound 10 µM
[31] = second compound 10 µM, first compound 0.0316 µM
[32] = second compound 10 µM, first compound 0.1 µM
[33] = second compound 10 µM, first compound 0.316 µM
[34] = second compound 10 µM, first compound 1 µM
[35] = second compound 10 µM, first compound 3.16 µM
[36] = second compound 10 µM, first compound 10 µM
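Also: spheroids exposed to compounds for seven days.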
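For viability, T/C in this document: 100% = DMSO vehicle control viability.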

## CC(C)(O)C1CCC(Nc2ccc3ncc(-c4cccc(C(F)(F)F)c4)n3n2)CC1 (stereo not given) + CN(C)c1ccc(Nc2c3ccc(NC(=O)CCN4CCCC4)cc3nc3cc(NC(=O)CCN4CCCC4)ccc23)cc1
Second compound 0.0316 µM
  IC50: > 10 µM
Second compound 0.1 µM
  IC50: > 10 µM
Second compound 0.316 µM
  IC50: > 10 µM
Second compound 1 µM
  IC50: > 10 µM
Second compound 3.16 µM
  IC50: > 10 µM
Second compound 10 µM
  IC50: > 10 µM
[1]
  viability, T/C: 78.5%
[2]
  viability, T/C: 92.8%
[3]
  viability, T/C: 99.9%
[4]
  viability, T/C: 80.2%
[5]
  viability, T/C: 85.1%
[6]
  viability, T/C: 92.3%
[7]
  viability, T/C: 100%
[8]
  viability, T/C: 91%
[9]
  viability, T/C: 88.6%
[10]
  viability, T/C: 87.6%
[11]
  viability, T/C: 76.6%
[12]
  viability, T/C: 81.2%
[13]
  viability, T/C: 108%
[14]
  viability, T/C: 83%
[15]
  viability, T/C: 96.5%
[16]
  viability, T/C: 89.7%
[17]
  viability, T/C: 58%
[18]
  viability, T/C: 63.3%
[19]
  viability, T/C: 69.5%
[20]
  viability, T/C: 96.2%
[21]
  viability, T/C: 79%
[22]
  viability, T/C: 75.2%
[23]
  viability, T/C: 78.9%
[24]
  viability, T/C: 61.2%
[25]
  viability, T/C: 92%
[26]
  viability, T/C: 95%
[27]
  viability, T/C: 90.4%
[28]
  viability, T/C: 94.3%
[29]
  viability, T/C: 85%
[30]
  viability, T/C: 74.4%
[31]
  viability, T/C: 120%
[32]
  viability, T/C: 140%
[33]
  viability, T/C: 103%
[34]
  viability, T/C: 88.8%
[35]
  viability, T/C: 78.3%
[36]
  viability, T/C: 55%

## COc1ccc([C@@H](O)c2cc(-c3ncnc4cc(N5CCOCC5)ccc34)c(F)cc2Cl)nn1 + CN(C)c1ccc(Nc2c3ccc(NC(=O)CCN4CCCC4)cc3nc3cc(NC(=O)CCN4CCCC4)ccc23)cc1
Second compound 0.0316 µM
  IC50: > 10 µM
Second compound 0.1 µM
  IC50: > 10 µM
Second compound 0.316 µM
  IC50: > 10 µM
Second compound 1 µM
  IC50: > 10 µM
Second compound 3.16 µM
  IC50: > 10 µM
Second compound 10 µM
  IC50: > 10 µM
[1]
  viability, T/C: 101%
[2]
  viability, T/C: 111%
[3]
  viability, T/C: 103%
[4]
  viability, T/C: 111%
[5]
  viability, T/C: 104%
[6]
  viability, T/C: 82.3%
[7]
  viability, T/C: 105%
[8]
  viability, T/C: 99.5%
[9]
  viability, T/C: 89.7%
[10]
  viability, T/C: 88.2%
[11]
  viability, T/C: 84.8%
[12]
  viability, T/C: 71.8%
[13]
  viability, T/C: 76.6%
[14]
  viability, T/C: 103%
[15]
  viability, T/C: 83.6%
[16]
  viability, T/C: 79%
[17]
  viability, T/C: 86.9%
[18]
  viability, T/C: 71.4%
[19]
  viability, T/C: 119%
[20]
  viability, T/C: 106%
[21]
  viability, T/C: 104%
[22]
  viability, T/C: 101%
[23]
  viability, T/C: 88.4%
[24]
  viability, T/C: 79.2%
[25]
  viability, T/C: 81.5%
[26]
  viability, T/C: 101%
[27]
  viability, T/C: 120%
[28]
  viability, T/C: 105%
[29]
  viability, T/C: 97.7%
[30]
  viability, T/C: 75.1%
[31]
  viability, T/C: 105%
[32]
  viability, T/C: 110%
[33]
  viability, T/C: 134%
[34]
  viability, T/C: 88.6%
[35]
  viability, T/C: 109%
[36]
  viability, T/C: 83.1%

## C=CCn1c(=O)c2cnc(Nc3ccc(N4CCN(C)CC4)cc3)nc2n1-c1cccc(C(C)(C)O)n1 + Cc1cnc(CNC(=O)c2c(=O)c3ccc(N4CCCN(C)CC4)nc3n3c2sc2ccccc23)cn1
Second compound 0.0316 µM
  IC50: 2.61 µM
Second compound 0.1 µM
  IC50: 1.06 µM
Second compound 0.316 µM
  IC50: < 0.0316 µM
Second compound 1 µM
  IC50: < 0.0316 µM
Second compound 3.16 µM
  IC50: 0.828 µM
Second compound 10 µM
  IC50: < 0.0316 µM
[1]
  viability, T/C: 92.1%
[2]
  viability, T/C: 70.7%
[3]
  viability, T/C: 81.6%
[4]
  viability, T/C: 78.6%
[5]
  viability, T/C: 44.3%
[6]
  viability, T/C: 28.4%
[7]
  viability, T/C: 69.1%
[8]
  viability, T/C: 60%
[9]
  viability, T/C: 55.6%
[10]
  viability, T/C: 51.5%
[11]
  viability, T/C: 23.1%
[12]
  viability, T/C: 25%
[13]
  viability, T/C: 50.9%
[14]
  viability, T/C: 42%
[15]
  viability, T/C: 32.1%
[16]
  viability, T/C: 36.4%
[17]
  viability, T/C: 41.3%
[18]
  viability, T/C: 33.8%
[19]
  viability, T/C: 42.8%
[20]
  viability, T/C: 49.4%
[21]
  viability, T/C: 39.2%
[22]
  viability, T/C: 39.4%
[23]
  viability, T/C: 47.5%
[24]
  viability, T/C: 44.1%
[25]
  viability, T/C: 56%
[26]
  viability, T/C: 49.9%
[27]
  viability, T/C: 49.5%
[28]
  viability, T/C: 41.4%
[29]
  viability, T/C: 50.5%
[30]
  viability, T/C: 53.8%
[31]
  viability, T/C: 47.7%
[32]
  viability, T/C: 36%
[33]
  viability, T/C: 45.7%
[34]
  viability, T/C: 40.8%
[35]
  viability, T/C: 40.9%
[36]
  viability, T/C: 39.1%

## C=CC(=O)N1CCN(c2nc(=O)n(-c3c(C)ccnc3C(C)C)c3nc(-c4c(O)cccc4F)c(F)cc23)C(C)C1 (stereo not given) + Cc1[nH]c2ccc(F)cc2c1-c1nc2c3cccnc3c3ncccc3c2[nH]1
Second compound 0.0316 µM
  IC50: > 10 µM
Second compound 0.1 µM
  IC50: > 10 µM
Second compound 0.316 µM
  IC50: > 10 µM
Second compound 1 µM
  IC50: > 10 µM
Second compound 3.16 µM
  IC50: > 10 µM
Second compound 10 µM
  IC50: > 10 µM
[1]
  viability, T/C: 94.6%
[2]
  viability, T/C: 86%
[3]
  viability, T/C: 94.8%
[4]
  viability, T/C: 101%
[5]
  viability, T/C: 111%
[6]
  viability, T/C: 116%
[7]
  viability, T/C: 106%
[8]
  viability, T/C: 69.4%
[9]
  viability, T/C: 99.3%
[10]
  viability, T/C: 127%
[11]
  viability, T/C: 92%
[12]
  viability, T/C: 98.7%
[13]
  viability, T/C: 130%
[14]
  viability, T/C: 95%
[15]
  viability, T/C: 117%
[16]
  viability, T/C: 118%
[17]
  viability, T/C: 114%
[18]
  viability, T/C: 113%
[19]
  viability, T/C: 92.9%
[20]
  viability, T/C: 124%
[21]
  viability, T/C: 133%
[22]
  viability, T/C: 112%
[23]
  viability, T/C: 93.6%
[24]
  viability, T/C: 107%
[25]
  viability, T/C: 114%
[26]
  viability, T/C: 91.2%
[27]
  viability, T/C: 105%
[28]
  viability, T/C: 104%
[29]
  viability, T/C: 96.2%
[30]
  viability, T/C: 88%
[31]
  viability, T/C: 88.7%
[32]
  viability, T/C: 103%
[33]
  viability, T/C: 81.3%
[34]
  viability, T/C: 90.7%
[35]
  viability, T/C: 103%
[36]
  viability, T/C: 87.1%

## CC(=O)O[C@H]1C(=O)[C@@]2(C)[C@H]([C@H](OC(=O)c3ccccc3)[C@]3(O)C[C@H](OC(=O)[C@H](O)[C@@H](NC(=O)c4ccccc4)c4ccccc4)C(C)=C1C3(C)C)[C@]1(OC(C)=O)CO[C@@H]1C[C@@H]2O + CN(C)c1ccc(Nc2c3ccc(NC(=O)CCN4CCCC4)cc3nc3cc(NC(=O)CCN4CCCC4)ccc23)cc1
Second compound 0.0316 µM
  IC50: 7.96 µM
Second compound 0.1 µM
  IC50: 8.65 µM
Second compound 0.316 µM
  IC50: > 10 µM
Second compound 1 µM
  IC50: > 10 µM
Second compound 3.16 µM
  IC50: > 10 µM
Second compound 10 µM
  IC50: > 10 µM
[1]
  viability, T/C: 86.5%
[2]
  viability, T/C: 79%
[3]
  viability, T/C: 104%
[4]
  viability, T/C: 104%
[5]
  viability, T/C: 65.3%
[6]
  viability, T/C: 46.2%
[7]
  viability, T/C: 83.4%
[8]
  viability, T/C: 90.2%
[9]
  viability, T/C: 113%
[10]
  viability, T/C: 101%
[11]
  viability, T/C: 67.3%
[12]
  viability, T/C: 47.5%
[13]
  viability, T/C: 73.5%
[14]
  viability, T/C: 82.3%
[15]
  viability, T/C: 116%
[16]
  viability, T/C: 85.6%
[17]
  viability, T/C: 72%
[18]
  viability, T/C: 57.5%
[19]
  viability, T/C: 81.1%
[20]
  viability, T/C: 99.5%
[21]
  viability, T/C: 96.4%
[22]
  viability, T/C: 69.5%
[23]
  viability, T/C: 80%
[24]
  viability, T/C: 51.8%
[25]
  viability, T/C: 93.7%
[26]
  viability, T/C: 116%
[27]
  viability, T/C: 103%
[28]
  viability, T/C: 92.5%
[29]
  viability, T/C: 82.6%
[30]
  viability, T/C: 53.5%
[31]
  viability, T/C: 99.7%
[32]
  viability, T/C: 122%
[33]
  viability, T/C: 125%
[34]
  viability, T/C: 130%
[35]
  viability, T/C: 77.6%
[36]
  viability, T/C: 67.1%
